The text below walks through data of patent US11957687B2 (REGENERON PHARMACEUTICALS, INC., priority 2019, dated 2024).

The target of this assay is HSD17B13 (Homo sapiens (Human), UniProt Q7Z5P4). Nature of the assay: HSD17B13 enzymatic inhibition assay (150 nM or 50 nM HSD17B13). It is filed as biochemical. The following applies: 50 nM HSD17B13; read-out: Inhibition of 50 nM of HSD17B13 IC50.
HSD17B13, sequence (Q7Z5P4 other isoform, or with tags, fused parts or gaps): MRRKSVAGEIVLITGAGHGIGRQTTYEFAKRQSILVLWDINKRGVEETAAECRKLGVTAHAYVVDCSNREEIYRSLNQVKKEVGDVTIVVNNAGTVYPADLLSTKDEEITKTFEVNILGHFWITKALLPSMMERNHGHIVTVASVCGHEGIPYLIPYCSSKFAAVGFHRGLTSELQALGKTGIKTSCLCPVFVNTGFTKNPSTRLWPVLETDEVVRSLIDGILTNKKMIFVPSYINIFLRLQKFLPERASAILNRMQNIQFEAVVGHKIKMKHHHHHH
Usually IC50 stands for the concentration that gives 50% inhibition. In the case of `O=C(NC1c2ccccc2Oc2ccc(F)cc21)c1ccc(C(F)(F)F)[nH]c1=O` (stereo not shown) [Compound 150, N-(2-fluoro-9H-xanthen-9-yl)-2-oxo-6-(trifluoromethyl)-1,2-dihydropyridine-3-carboxamide], the IC50 was 400 nM.
The figure for `O=C(NC1c2ccccc2Oc2cc(C3CCC3)ccc21)c1ccc(C(F)(F)F)[nH]c1=O` (stereo not shown) [Compound 151, N-(3-cyclobutyl-9H-xanthen-9-yl)-2-oxo-6-(trifluoromethyl)-1,2-dihydropyridine-3-carboxamide] is 290 nM; for `O=C(NC1c2ccccc2Oc2c(Cl)cccc21)c1ccc(C(F)(F)F)[nH]c1=O` (stereo not shown) [Compound 152, N-(4-chloro-9H-xanthen-9-yl)-2-oxo-6-(trifluoromethyl)-1,2-dihydropyridine-3-carboxamide] it is 1030 nM; for `O=C(NC1c2cc(Cl)ccc2Oc2ccc(Cl)cc21)c1ccc(C(F)(F)F)[nH]c1=O` [Compound 153, N-(2,7-dichloro-9H-xanthen-9-yl)-2-oxo-6-(trifluoromethyl)-1,2-dihydropyridine-3-carboxamide] it is 1790 nM.
The figure for `N#Cc1ccc2c(c1)C(NC(=O)c1ccc(C(F)(F)F)[nH]c1=O)c1ccccc1O2` (stereo not shown) [Compound 154, N-(2-cyano-9H-xanthen-9-yl)-2-oxo-6-(trifluoromethyl)-1,2-dihydropyridine-3-carboxamide] is 650 nM; for `C=Cc1ccc2c(c1)C(NC(=O)c1ccc(C(F)(F)F)[nH]c1=O)c1ccccc1O2` (stereo not shown) [Compound 155, 2-oxo-6-(trifluoromethyl)-N-(2-vinyl-9H-xanthen-9-yl)-1,2-dihydropyridine-3-carboxamide] it is 460 nM.
`O=C(NC1c2ccccc2Oc2cccc(F)c21)c1ccc(C(F)(F)F)[nH]c1=O` (stereo not shown) [Compound 156, N-(1-fluoro-9H-xanthen-9-yl)-2-oxo-6-(trifluoromethyl)-1,2-dihydropyridine-3-carboxamide]: the 50% inhibitory concentration (IC50) was determined as 260 nM.
Next, `Cc1cccc2c1C(NC(=O)c1ccc(C(F)(F)F)[nH]c1=O)c1ccccc1O2` (stereo not shown) [Compound 157, N-(1-methyl-9H-xanthen-9-yl)-2-oxo-6-(trifluoromethyl)-1,2-dihydropyridine-3-carboxamide]: 850 nM; `Cc1ccc2c(c1)C(NC(=O)c1ccc(C(F)(F)F)[nH]c1=O)c1cc(C)ccc1O2` [Compound 158, N-(2,7-dimethyl-9H-xanthen-9-yl)-2-oxo-6-(trifluoromethyl)-1,2-dihydropyridine-3-carboxamide]: 360 nM; `O=C(NC1c2ccccc2Oc2cccc(Cl)c21)c1ccc(C(F)(F)F)[nH]c1=O` (stereo not shown) [Compound 159, N-(1-chloro-9H-xanthen-9-yl)-2-oxo-6-(trifluoromethyl)-1,2-dihydropyridine-3-carboxamide]: 600 nM.
Next, `CCc1ccc2c(c1)C(NC(=O)c1ccc(C(F)(F)F)[nH]c1=O)c1ccccc1O2` (stereo not shown) [Compound 160, N-(2-ethyl-9H-xanthen-9-yl)-2-oxo-6-(trifluoromethyl)-1,2-dihydropyridine-3-carboxamide]: 180 nM.
The figure for `CCc1ccc2c(c1)Oc1ccccc1C2NC(=O)c1ccc(C(F)(F)F)[nH]c1=O` (stereo not shown) [Compound 162, N-(3-ethyl-9H-xanthen-9-yl)-2-oxo-6-(trifluoromethyl)-1,2-dihydropyridine-3-carboxamide] is 80 nM; for `CCc1cccc2c1C(NC(=O)c1ccc(C(F)(F)F)[nH]c1=O)c1ccccc1O2` (stereo not shown) [Compound 163, N-(1-ethyl-9H-xanthen-9-yl)-2-oxo-6-(trifluoromethyl)-1,2-dihydropyridine-3-carboxamide] it is 840 nM; for `Cc1ccc2c(c1)Oc1cccc(C)c1C2NC(=O)c1cc(C)c(C(F)(F)F)[nH]c1=O` (stereo not shown) [Compound 164, N-(1,6-dimethyl-9H-xanthen-9-yl)-5-methyl-2-oxo-6-(trifluoromethyl)-1,2-dihydropyridine-3-carboxamide] it is 900 nM.
As for `Cc1cc(C(=O)NC2c3ccc(Cl)cc3Oc3cc(Cl)ccc32)c(=O)[nH]c1C(F)(F)F` [Compound 165, N-(3,6-dichloro-9H-xanthen-9-yl)-5-methyl-2-oxo-6-(trifluoromethyl)-1,2-dihydropyridine-3-carboxamide], the half-maximal inhibitory concentration (IC50) came out at 110 nM.
Next, `Cc1ccc2c(c1)Oc1cc(C)ccc1C2NC(=O)c1cc(C)c(C(F)(F)F)[nH]c1=O` [Compound 166, N-(3,6-dimethyl-9H-xanthen-9-yl)-5-methyl-2-oxo-6-(trifluoromethyl)-1,2-dihydropyridine-3-carboxamide]: 60 nM; `CCc1cc(C(=O)NC2c3ccc(C)cc3Oc3cccc(C)c32)c(=O)[nH]c1C(F)(F)F` (stereo not shown) [Compound 167, N-(1,6-dimethyl-9H-xanthen-9-yl)-5-ethyl-2-oxo-6-(trifluoromethyl)-1,2-dihydropyridine-3-carboxamide]: 820 nM.
As for `C=Cc1cc(C(=O)NC2c3ccc(C)cc3Oc3cccc(C)c32)c(=O)[nH]c1C(F)(F)F` (stereo not shown) [Compound 168, N-(1,6-dimethyl-9H-xanthen-9-yl)-2-oxo-6-(trifluoromethyl)-5-vinyl-1,2-dihydropyridine-3-carboxamide], the IC50 amounted to 330 nM.
`CCc1cc(C(=O)NC2c3ccc(Cl)cc3Oc3cccc(Cl)c32)c(=O)[nH]c1C(F)(F)F` (stereo not shown) [Compound 169, N-(1,6-dichloro-9H-xanthen-9-yl)-5-ethyl-2-oxo-6-(trifluoromethyl)-1,2-dihydropyridine-3-carboxamide]: the concentration for half-maximal inhibition (IC50) was 780 nM.
Turning to `C=Cc1cc(C(=O)NC2c3ccc(Cl)cc3Oc3cccc(Cl)c32)c(=O)[nH]c1C(F)(F)F` (stereo not shown) [Compound 170, N-(1,6-dichloro-9H-xanthen-9-yl)-2-oxo-6-(trifluoromethyl)-5-vinyl-1,2-dihydropyridine-3-carboxamide], the IC50 amounted to 350 nM.
On to `C=Cc1cc(C(=O)NC2c3ccc(Cl)cc3Oc3cc(Cl)ccc32)c(=O)[nH]c1C(F)(F)F` [Compound 171, N-(3,6-dichloro-9H-xanthen-9-yl)-2-oxo-6-(trifluoromethyl)-5-vinyl-1,2-dihydropyridine-3-carboxamide], for which the IC50 was 100 nM.
The figure for `CCc1cc(C(=O)NC2c3ccc(Cl)cc3Oc3cc(Cl)ccc32)c(=O)[nH]c1C(F)(F)F` [Compound 172, N-(3,6-dichloro-9H-xanthen-9-yl)-5-ethyl-2-oxo-6-(trifluoromethyl)-1,2-dihydropyridine-3-carboxamide] is 140 nM.
Regarding `C=CCc1cc(C(=O)NC2c3ccc(Cl)cc3Oc3cc(Cl)ccc32)c(=O)[nH]c1C(F)(F)F` [Compound 173, 5-allyl-N-(3,6-dichloro-9H-xanthen-9-yl)-2-oxo-6-(trifluoromethyl)-1,2-dihydropyridine-3-carboxamide], the half-maximal inhibitory concentration (IC50) stood at 30 nM.
Next, `C=CCc1cc(C(=O)NC2c3ccc(Cl)cc3Oc3cccc(Cl)c32)c(=O)[nH]c1C(F)(F)F` (stereo not shown) [Compound 174, 5-allyl-N-(1,6-dichloro-9H-xanthen-9-yl)-2-oxo-6-(trifluoromethyl)-1,2-dihydropyridine-3-carboxamide]: 240 nM.
As to `Cc1ccc2c(c1)Oc1cccc(C)c1C2NC(=O)c1cc(-c2ccccc2)c(C(F)(F)F)[nH]c1=O` (stereo not shown) [Compound 175, N-(1,6-dimethyl-9H-xanthen-9-yl)-2-oxo-5-phenyl-6-(trifluoromethyl)-1,2-dihydropyridine-3-carboxamide], the IC50 worked out at 280 nM.
As to `CCCc1cc(C(=O)NC2c3ccc(Cl)cc3Oc3cccc(Cl)c32)c(=O)[nH]c1C(F)(F)F` (stereo not shown) [Compound 179, N-(1,6-dichloro-9H-xanthen-9-yl)-2-oxo-5-propyl-6-(trifluoromethyl)-1,2-dihydropyridine-3-carboxamide], the half-inhibitory concentration (IC50) was determined as 400 nM.
The figure for `C=CCc1cc(C(=O)NC2c3ccc(C)cc3Oc3cccc(C)c32)c(=O)[nH]c1C(F)(F)F` (stereo not shown) [Compound 180, 5-allyl-N-(1,6-dimethyl-9H-xanthen-9-yl)-2-oxo-6-(trifluoromethyl)-1,2-dihydropyridine-3-carboxamide] is 160 nM; for `CCCc1cc(C(=O)NC2c3ccc(C)cc3Oc3cccc(C)c32)c(=O)[nH]c1C(F)(F)F` (stereo not shown) [Compound 181, N-(1,6-dimethyl-9H-xanthen-9-yl)-2-oxo-5-propyl-6-(trifluoromethyl)-1,2-dihydropyridine-3-carboxamide] it is 390 nM; for `Cc1ccc2c(c1)Oc1cccc(C)c1C2NC(=O)c1cc(CCc2ccccc2)c(C(F)(F)F)[nH]c1=O` (stereo not shown) [Compound 184, N-(1,6-dimethyl-9H-xanthen-9-yl)-2-oxo-5-phenethyl-6-(trifluoromethyl)-1,2-dihydropyridine-3-carboxamide] it is 150 nM.
Next, `Cc1ccc2c(c1)Oc1cccc(C)c1C2NC(=O)c1cc(CO)c(C(F)(F)F)[nH]c1=O` (stereo not shown) [Compound 185, N-(1,6-dimethyl-9H-xanthen-9-yl)-5-(hydroxymethyl)-2-oxo-6-(trifluoromethyl)-1,2-dihydropyridine-3-carboxamide]: 730 nM.
The figure for `Cc1ccc2c(c1)Oc1cccc(C)c1C2NC(=O)c1cc(C2CCCCC2)c(C(F)(F)F)[nH]c1=O` (stereo not shown) [Compound 186, 5-cyclohexyl-N-(1,6-dimethyl-9H-xanthen-9-yl)-2-oxo-6-(trifluoromethyl)-1,2-dihydropyridine-3-carboxamide] is 1830 nM.
Regarding `Cc1ccc2c(c1)Oc1cccc(C)c1C2NC(=O)c1cc(C2=CCCCC2)c(C(F)(F)F)[nH]c1=O` (stereo not shown) [Compound 187, 5-(cyclohex-1-en-1-yl)-N-(1,6-dimethyl-9H-xanthen-9-yl)-2-oxo-6-(trifluoromethyl)-1,2-dihydropyridine-3-carboxamide], the IC50 was determined as 770 nM.
As to `Cc1ccc2c(c1)Oc1cccc(C)c1C2NC(=O)c1cc(C2=CCOCC2)c(C(F)(F)F)[nH]c1=O` (stereo not shown) [Compound 188, 5-(3,6-dihydro-2H-pyran-4-yl)-N-(1,6-dimethyl-9H-xanthen-9-yl)-2-oxo-6-(trifluoromethyl)-1,2-dihydropyridine-3-carboxamide], the concentration for half-maximal inhibition (IC50) was 280 nM.
The figure for `Cc1ccc2c(c1)Oc1cc(C)ccc1C2NC(=O)c1cc(Br)c(C(F)(F)F)[nH]c1=O` [Compound 189, 5-bromo-N-(3,6-dimethyl-9H-xanthen-9-yl)-2-oxo-6-(trifluoromethyl)-1,2-dihydropyridine-3-carboxamide] is 70 nM.
